{
  "source": "patent US5466667A",
  "about": "“Prophylactic and therapeutic methods for treating edema with antamanides” (priority 1993, dated 1995)",
  "key": {"[1]": {"system": "bovine aortic endothelial cells (BAEC)", "assay": "Microfilament and cell surface area measurement in cultured endothelial cells (rhodamine-phalloidin fluorescence microscopy)", "type": "cell-based", "text": "Bovine abdominal aortas were clamped and tied in-situ and dissected free of the supporting adventitia. Aortas were transported from the abbatoir on ice. Endothelial cells were harvested by gentle ablation of the endothelium following the technique of Shepro et al. [Anat. Rec. 178:523 (1974)]; digested with 0.1% collagenase; and then pelleted and seeded onto 100 mm diameter tissue culture dishes using conventional techniques. The cell medium consisted of DULBECCO'S MODIFIED EAGLES'S MEDIUM medium (hereinafter \"DME\") at pH 7.4 supplemented with 10% fetal calf serum (hereinafter \"FCS\"), 0.1% of penicillin, 0.7% streptomycin, 0.1% amphotericin, and 0.1% glutamine. The cell media was replaced every 3 days. The cells were incubated at 37° C. in a 10% carbon dioxide, 90% ambient atmosphere (100% humidified).\nThis amount of confluency permits excellent visualization of cell spreading and stressed fibers. Individual confluent layers of cells were then treated with 1 uM Phallin A for 30 minutes duration; then fixed in 3.7% phosphate-buffered formaldehyde (pH 7.4) for 15 minutes. The cells on each coverslip were then permeabilized in extraction buffer (composed of 0.5M KCl, 1% triton X-100, 10 mM MgCl2, and 1 mg/ml tosyl-arginine methyl ester (hereinafter \"TAME\"); 17 ug/ml toluene-sulfonyl fluoride (hereinafter \"TSF\"); and 0.25 mg/ml DNAse 1 in PBS for a period of 10 minutes. Subsequently, this extraction buffer was removed and the cells washed three times in sequence with PBS. The cells were then stained with Rhodamine-phalloidin (an F-active specific fluorescent probe, Molecular Probes, Inc., Junction City, Oreg.) at 1 unit/200 ul per coverslip for 39 minutes duration. Subsequently, the coverslips were washed five times consecutively in PBS; mounted in a 1:1 ratio mixture of PBS/glycerol; and sealed. The cultured cells on each coverslip were illuminated for fluorescence microscopy. […] For comparative purposes, 1.0 uM of phalloidin (also known as Phallin B) or a mixture of Phallin A and Phhallin B, and PBS alone as the control was similarly evaluated. […] Clearly, the use of Phallin A at concentrations of 10^-6 to 10^-7 M is non-toxic to the cultured endothelial cells."}, "[2]": {"details": "cited from earlier work"}, "[3]": {"system": "bovine aortic endothelial cells (BAEC)", "assay": "Permeability assay: TBA (trypan blue-albumin) uptake by BAEC-covered microcarrier beads", "type": "cell-based", "details": "1 uM, 30 minutes, versus untreated controls and mixture of phalloidin and Phallin A, FIG. 2", "protocol": "Bovine aortic endothelial cells (BAEC) were prepared, cultured, and harvested as described within Experiment 1. Subsequently, BAEC were subcultured a maximum of three times before seeding onto CYTODEX 3 microcarrier beads (Pharmacia, Inc. ) . Microcarrier beads were suspended in cell media at a concentration of 40,000 microcarriers per milliliter. Beads were suspended by stirring, using a magnetic stirrer. BAEC were seeded onto the beads at the minimum density of 15 cells per bead and allowed to reach confluency. Subsequently, BAEC covered beads were allowed to incubate for 6 days post-confluency to obtain near maximum barrier function of the cell monolayers on the beads. After this incubation period, the BAEC covered beads were ready for use within permeability experiments. […]\nBAEC barrier function was measured by TBA uptake per bead; therefore, it is necessary to standardize the number of beads per milliliter. […] Standard curves for absorbance as a function of bead concentration provides a linear relationship as a basis for comparison and extrapolation. […]\nBAEC barrier function was then assessed in the following manner: 3.0 ml of BAEC-covered microcarrier beads at a density of 40,000 beads per milliliter were aliquotted into a 4.5 ml test vial in duplicate. […]\nThis assay procedure uses colorimetry to measure TBA dye absorbance by the beads. […]"}, "[4]": {"system": "endothelial actin cytoskeleton", "details": "cited from earlier work"}, "endothelial cell": {"system": "endothelial cell", "details": "physiological titers and concentrations; cited from earlier work"}, "endothelial cells": {"system": "endothelial cells", "details": "cited from earlier work"}},
  "note": "“Also recorded” adds a separate entry of the source. Residues, ends and D or L forms follow the SMILES beside them.",
  "data": [
    {"smiles": "CC(C)[C@@H]1NC(=O)[C@H](Cc2ccccc2)NC(=O)[C@H](Cc2ccccc2)NC(=O)[C@@H]2CCCN2C(=O)[C@@H]2CCCN2C(=O)[C@H](Cc2ccccc2)NC(=O)[C@H](Cc2ccccc2)NC(=O)[C@H](C)NC(=O)[C@@H]2CCCN2C(=O)[C@@H]2CCCN2C1=O", "note": "[Phallin A, antamanide] (cyclo(AFFPPFFVPP))", "values": [
      {"measurement": "cell surface area and cell perimeter", "setting": "[1]; BAEC at 50% confluency, 1 uM, 30 minutes", "value": "increased surface area and cell perimeter"},
      {"measurement": "cell proliferation", "setting": "[1]; BAEC, 1.0 uM, FIG. 1", "value": "do not alter in proliferation"},
      {"measurement": "ratio of cell perimeter to cell area (roundness)", "setting": "[1]; BAEC, 1.0 uM, FIG. 1", "value": "diminishes"},
      {"measurement": "cell shape (flattening and border extension)", "setting": "[1]; BAEC, 1.0 uM, FIG. 1, comparable to other agents and controls", "value": "substantial flattening and border extension"},
      {"measurement": "toxicity to cultured endothelial cells", "setting": "[1]; concentrations of 10^-6 to 10^-7 M", "value": "non-toxic"},
      {"measurement": "protection of the liver", "setting": "[2]; administered in therapeutic doses", "value": "protecting the liver completely"},
      {"measurement": "annulling toxic effects of fatal doses of phalloidin", "setting": "[2]; in vivo", "value": "capable of annulling the toxic effects of fetal doses of phalloidin; also recorded: capable at very low dosage of counteracting the effects of an absolutely fatal dose of phalloidin"},
      {"measurement": "endothelial cell barrier function / resistance to permeability (TBA uptake)", "setting": "[3]", "value": "markedly increases cell barrier function"}
    ]},
    {"smiles": "C=C1[C@@H](C)[C@H]2[C@H](Cc3ccccc3)NC(=O)[C@]23OC(=O)/C=C/[C@H](O)CCC[C@@H](C)C/C=C/[C@H]3[C@@H]1O", "note": "[cytochalasin B]", "values": [
      {"measurement": "permeability for plasma proteins after disruption of endothelial actin cytoskeleton", "setting": "[4]", "value": "increase in permeability for plasma proteins"}
    ]},
    {"smiles": "NCCc1c[nH]cn1", "note": "[histamine]", "values": [
      {"measurement": "endothelial cell movement", "setting": "endothelial cell", "value": "inhibit endothelial cell movement"},
      {"measurement": "stress fibers within endothelial cells", "setting": "endothelial cells", "value": "produces stress fiber disassembly"}
    ]},
    {"smiles": "NC[C@H](O)c1ccc(O)c(O)c1", "note": "[norepinephrine]", "values": [
      {"measurement": "endothelial cell movement", "setting": "endothelial cell", "value": "inhibit endothelial cell movement"},
      {"measurement": "stress fibers within endothelial cells", "setting": "endothelial cells", "value": "stimulate the assembly of stress fibers"}
    ]},
    {"smiles": "NCCc1c[nH]c2ccc(O)cc12", "note": "[serotonin]", "values": [
      {"measurement": "endothelial cell movement", "setting": "endothelial cell", "value": "inhibit endothelial cell movement"},
      {"measurement": "stress fibers within endothelial cells", "setting": "endothelial cells", "value": "stimulate the assembly of stress fibers"}
    ]}
  ]
}
